Bridges are numbered along the chain shown (N, C = ends). Where no end group is shown, it is not given here.
What was measured:
[1] = test system: Klebsiella pneumoniae ATCC 700603 (MDR resistant strain); assay: CFU count after 24 h incubation with antibiotic alone or with grZ14s-nvCyc; type: cell-based
Procedure: Klebsiella pneumoniae ATCC 700603 (MDR resistant strain: Resistant to ampicillin, aztreonam, cefoxitin, cefpodoxime, ceftazidime, chloramphenicol, piperacillin, tetracycline) (3×10^5 CFU/mL) was incubated with either ampicillin, alone or with the grZ14s-nvCyc peptide (10 nM), for 24 hours at 37° C. with shaking (250 rpm). The solutions in the tubes were diluted ten-fold with phosphate buffered saline (PBS) by serial dilutions. The diluted solutions were then seeded on a blood plate agar and incubated at 37° C. for 24 hours.
A similar assay was performed with K. pneumoniae at lower bacterial concentrations of 2×10^3 CFU/mL.
K. pneumoniae ATCC 700603 (MDR resistant strain: Resistant to ampicillin, aztreonam, cefoxitin, cefpodoxime, ceftazidime, chloramphenicol, piperacillin, tetracycline) (2×10^6 CFU/mL) was incubated with either cefoxitin, alone or with the grZ14s-nvCyc peptide (10 nM), for 24 hours at 37° C. with shaking (250 rpm). The solutions were then treated as described in the examples above.
Similarly, K. pneumoniae ATCC 700603 (MDR resistant strain: Resistant to ampicillin, aztreonam, cefoxitin, cefpodoxime, ceftazidime, chloramphenicol, piperacillin, tetracycline) (4×10^6 CFU/mL) was incubated with chloramphenicol, alone or with grZ14s-nvCyc, as described in the Examples above.
Similarly, K. pneumoniae ATCC 700603 (MDR resistant strain: Resistant to ampicillin, aztreonam, cefoxitin, cefpodoxime, ceftazidime, chloramphenicol, piperacillin, tetracycline) (1×10^3 CFU/mL) was incubated with chloramphenicol, alone or with grZ14s-nvCyc, as described in the Examples above.

[2] = test system: K. pneumoniae ATCC BAA 1705 (carbapenemase positive strain); assay: as above; type: cell-based, Klebsiella pneumoniae
Procedure: K. pneumoniae ATCC BAA® 1705 (3×10^2 CFU/mL) (carbapenemase positive strain) (carbapenem-imipenem and ertapenem, amikacin, aztreonam, levofloxacin and ciprofloxacin-resistant strain) was incubated with imipenem, alone or with the grZ14s-nvCyc peptide (10 nM), for 24 hours at 37° C. with shaking (250 rpm). The solutions were then treated as described in the examples above. […]
Similarly, K. pneumoniae ATCC BAA® 1705 (1×10^5 CFU/mL) was incubated with ciprofloxacin, alone or with grZ14s-nvCyc, as described in the Examples above. […]
K. pneumoniae ATCC BAA® 1705 (2×10^6 CFU/mL) (carbapenem-imipenem and ertapenem, amikacin, aztreonam, levofloxacin and ciprofloxacin-resistant strain) was incubated with levofloxacin, alone or with grZ14s-nvCyc, as described in the Examples above.
K. pneumoniae ATCC BAA® 1705 (1×10^5 CFU/mL) (carbapenem-imipenem and ertapenem, amikacin, aztreonam, levofloxacin and ciprofloxacin-resistant strain) was incubated with aztreonam, alone or with grZ14s-nvCyc, as described in the Examples above. […]

[3] = test system: methicillin sensitive S. aureus ATCC 25923 (MSSA); assay: as above; type: cell-based, Staphylococcus aureus
Procedure: (§1) Staphylococcus aureus ATCC 43300 (5×10^5 CFU/mL) (MRSA strain) was incubated in 1.5 mL Eppendorf tubes with either oxacillin alone or oxacillin with the grZ14s-nvCyc peptide (10 nM) (cyclized CSVHSFDYDWYNVC) for 24 hours at 37° C. with shaking (250 rpm). The solutions in the tubes were diluted ten-fold with phosphate buffered saline (PBS) by serial dilutions. The diluted solutions were then seeded on a blood agar plate and incubated at 37° C. for 24 hours. The results represent the number of Colony Forming Unit (CFU) counts on the blood agar plates.
As a comparison, a strain of methicillin sensitive S. aureus ATCC 25923 (5×10^5 CFU/mL) was treated with oxacillin, alone or with the grZ14s-nvCyc (10 nM).
(§2) A similar assay was performed with S. aureus ATCC 43300 at a concentration of 7×10^6 CFU/mL. The bacterial concentration in this assay is higher (˜7×10^6 CFU/mL).
(§3) S. aureus ATCC 33591 (MRSA strain) (5×10^7 CFU/mL) and methicillin sensitive strain (MSSA) of S. aureus ATCC 25923 (1×10^8 CFU/mL) were incubated in 1.5 mL Eppendorf tubes with either oxacillin alone or oxacillin with the grZ14s-nvCyc (10 nM) for 24 hours at 37° C. with shaking (250 rpm). The solutions in the tubes were diluted ten-fold with PBS by serial dilutions. The diluted solutions were then seeded on a blood plate agar and incubated at 37° C. for 24 hours.

[4] = test system: S. aureus ATCC 33591 (MRSA strain); assay: as above; type: cell-based, Staphylococcus aureus; details: 10 nM grZ14s-nvCyc
Procedure: as §3
S. aureus ATCC 33591 (5×10^5 CFU/mL) (MRSA strain) was incubated in 1.5 mL Eppendorf tubes with oxacillin, alone or with the grZ14s-nvCyc peptide (10 nM), for 24 hours at 37° C. with shaking (250 rpm). […] The solutions in the tubes were diluted ten-fold with phosphate buffered saline (PBS) by serial dilutions. The diluted solutions were then seeded on a blood plate agar and incubated at 37° C. for 24 hours.

[5] = test system: S. aureus ATCC BAA 1708 (MRSA strain, mupA positive); assay: CFU count after incubation with mupirocin alone or with grZ14s-nvCyc; type: cell-based, Staphylococcus aureus; details: 1×10^5 CFU/mL; 10 nM grZ14s-nvCyc; FIG. 12
Procedure: as §1
S. aureus ATCC BAA® 1708 (MRSA strain, mupA positive) (1×10^5 CFU/mL) was incubated with mupirocin, alone or with grZ14s-nvCyc as described in the Examples above.

[6] = test system: Staphylococcus aureus ATCC 43300 (MRSA strain); assay: CFU count after 24 h incubation with antibiotic alone or with grZ14s-nvCyc; type: cell-based; details: for bacteria killing concentration of oxacillin with grZ14s-nvCyc versus oxacillin alone: 10 nM grZ14s-nvCyc
Procedure: as §1, §2

[7] = test system: Enterococcus faecium ATCC 700221 (vancomycin, teicoplanin and tetracyclin resistant strain); assay: as above; type: cell-based; details: for bacteria killing concentration of tetracyclin lower with grZ14s-nvCyc than with tetracyclin alone: grZ14s-nvCyc (10 mN)
Procedure: Enterococcus faecium ATCC 700221 (4×10^2 CFU/mL) (vancomycin, teicoplanin and tetracyclin resistant strain) was incubated in 1.5 mL Eppendorf tubes with either vancomycin, alone or with the grZ14s-nvCyc peptide (10 nM), for 24 hours at 37° C. with shaking (250 rpm). The solutions in the tubes were diluted ten-fold with phosphate buffered saline (PBS) by serial dilutions. The diluted solutions were then seeded on a blood plate agar and incubated at 37° C. for 24 hours.
E. faecium ATCC 700221 (2×10^2 CFU/mL) (vancomycin, teicoplanin and tetracyclin resistant strain) was incubated with either teicoplanin, alone or with the grZ14s-nvCyc peptide (10 nM), for 24 hours at 37° C. with shaking (250 rpm). The solutions were treated as described above.
E. faecium ATCC 700221 (1×10^3 CFU/mL) (vancomycin, teicoplanin and tetracyclin resistant strain) was incubated with tetracyclin, alone or with grZ14s-nvCyc ([…]), as described in the Examples above. […] Similarly, E. faecium ATCC 700221 (2×10^5 CFU/mL) (vancomycin, teicoplanin and tetracyclin resistant strain) was incubated with tetracyclin, alone or with grZ14s-nvCyc ([…]), as described in the Examples above.

CC1(C)S[C@@H]2[C@H](NC(=O)[C@H](N)c3ccccc3)C(=O)N2[C@H]1C(=O)O [ampicillin, reference compound]
bacteria killing by ampicillin alone ([1]; 2×10^3 CFU/mL, FIG. 8): achieves bacteria killing with the antibiotic alone | bacterial killing by ampicillin alone ([1]; 3×10^5 CFU/mL, even very high concentrations of ampicillin, FIG. 7): could not achieve bacterial killing

C[C@H]1[C@H](NC(=O)/C(=N\OC(C)(C)C(=O)O)c2csc(N)n2)C(=O)N1S(=O)(=O)O [aztreonam, reference compound]
bacteria killing by aztreonam alone ([2]; 1×10^3 CFU/mL, FIG. 19b): able achieve bacteria killing activity | bacteria killing by aztreonam alone ([2]; 1×10^5 CFU/mL, at 1000 μg/ml aztreonam, FIG. 19): does not achieve bacteria killing

O=C(N[C@H](CO)[C@H](O)c1ccc([N+](=O)[O-])cc1)C(Cl)Cl [chloramphenicol, reference compound]
bacteria killing by chloramphenicol alone ([1]; 1×10^3 CFU/mL, FIG. 16): can achieve bacteria killing activity | bacteria killing by chloramphenicol alone ([1]; 4×10^6 CFU/mL, at the concentration where the combination kills, FIG. 15): does not achieve bacteria killing

Cc1onc(-c2ccccc2)c1C(=O)N[C@@H]1C(=O)N2[C@@H]1SC(C)(C)[C@@H]2C(=O)O [oxacillin, reference compound]
oxacillin concentration needed to kill the bacteria ([3]; ~7×10^6 CFU/mL, oxacillin alone, FIG. 2): 12.5 µg/mL

cyclized CSVHSFDYDWYNVC (disulfide 1-14 (inferred); not fully specified) [grZ14s-nvCyc]
bacteria killing concentration of oxacillin with grZ14s-nvCyc versus oxacillin alone ([4]; 5×10^5 CFU/mL, FIG. 4a): much lower | bacteria killing concentration of oxacillin in the presence of the peptide versus oxacillin alone ([4]; 5×10^7 CFU/mL, FIG. 3): reduced to about half | bacteria killing concentration of chloramphenicol with grZ14s-nvCyc lower than with chloramphenicol alone ([1]; 1×10^3 CFU/mL, 10 nM grZ14s-nvCyc, FIG. 16): 20% | bacteria killing concentration of ampicillin lower with grZ14s-nvCyc than with ampicillin alone ([1]; 2×10^3 CFU/mL, 10 nM grZ14s-nvCyc, FIG. 8): 100 µg/mL | bacteria killing concentration of cefoxitin lower with grZ14s-nvCyc than in cefoxitin alone ([1]; 2×10^6 CFU/mL, 10 nM grZ14s-nvCyc, FIG. 9): > 80% | bacteria killing activity of ampicillin with grZ14s-nvCyc at lower concentrations ([1]; 3×10^5 CFU/mL, 10 nM grZ14s-nvCyc, FIG. 7): ~100% | bacteria killing by chloramphenicol with grZ14s-nvCyc ([1]; 4×10^6 CFU/mL, 10 nM grZ14s-nvCyc, FIG. 15): achieves bacteria killing at a concentration where chloramphenicol alone does not achieve bacteria killing | bacterial load in the presence of a combination of mupirocin and grZ14s-nvCyc [5]: reduced by at least one order of magnitude | bacteria killing concentration of oxacillin with grZ14s-nvCyc versus oxacillin alone ([6]; 5×10^5 CFU/mL, 24 h, 37° C., FIG. 1a): much lower | bacteria killing concentration of oxacillin with grZ14s-nvCyc versus oxacillin alone ([6]; 7×10^6 CFU/mL, FIG. 2): much lower | oxacillin concentration needed to kill the bacteria, with grZ14s-nvCyc ([6]; ~7×10^6 CFU/mL, oxacillin with 10 nM grZ14s-nvCyc, FIG. 2): 6.25 µg/mL | bacteria killing concentration of ciprofloxacin lower with grZ14s-nvCyc than with ciprofloxacin alone ([2]; 1×10^5 CFU/mL, 10 nM grZ14s-nvCyc, FIG. 14): 80% | aztreonam concentration at which aztreonam with grZ14s-nvCyc achieves bacteria killing ([2]; 1×10^5 CFU/mL, 10 nM grZ14s-nvCyc, FIG. 19): 1000 µg/mL | bacteria killing concentration of amikacin with grZ14s-nvCyc lower than with amikacin alone ([2]; 1×10^6 CFU/mL, incubated with amikacin, alone or with grZ14s-nvCyc, FIG. 17): 75% | bacteria killing concentration of levofloxacin with grZ14s-nvCyc lower than with levofloxacin alone ([2]; 2×10^6 CFU/mL, 10 nM grZ14s-nvCyc, FIG. 18): 30% | bacteria killing concentration of imipenem lower with grZ14s-nvCyc than in imipenem alone ([2]; 3×10^2 CFU/mL, 10 nM grZ14s-nvCyc, FIG. 10): > 75% | bacteria killing concentration of tetracyclin lower with grZ14s-nvCyc than with tetracyclin alone ([7]; 1×10^3 CFU/mL, FIG. 13a): 60% | bacteria killing concentration of teicoplanin lower with grZ14s-nvCyc than with teicoplanin alone ([7]; 2×10^2 CFU/mL, 10 nM grZ14s-nvCyc, FIG. 6): about 60% | bacteria killing concentration of tetracyclin lower with grZ14s-nvCyc than with tetracyclin alone ([7]; 2×10^5 CFU/mL, FIG. 13b): ~70% | bacteria killing concentration of vancomycin lower with grZ14s-nvCyc than with vancomycin alone ([7]; 4×10^2 CFU/mL, 10 nM grZ14s-nvCyc, FIG. 5): about 50% | difference between the activity of oxacillin with or without grZ14s-nvCyc ([3]; 1×10^6 CFU/mL, 10 nM grZ14s-nvCyc, FIG. 4b): no significant difference | bacteria killing concentration of oxacillin in the presence of the peptide versus oxacillin alone ([3]; 1×10^8 CFU/mL, 10 nM grZ14s-nvCyc, FIG. 3): reduced to about half | difference between the activity of oxacillin with or without grZ14s-nvCyc ([3]; 5×10^5 CFU/mL, 10 nM grZ14s-nvCyc, FIG. 1b): no significant difference

— patent publication US20160303182A1, “USE OF PEPTIDES IN ANTIBIOTIC RESISTANCE” (priority 2013, published 2016)
